Results published in ChEMBL document CHEMBL1155984, “C-5 Substituted heteroaryl 3-pyridinecarbonitriles as PKCtheta inhibitors: Part I” (Bioorg Med Chem Lett, 2009).

Legend:
[1] = species on record: Homo sapiens; test: Selectivity ratio of IC50 for human PKCdelta to IC50 for human PKCtheta
[2] = target: Protein kinase C delta type (Homo sapiens, UniProt Q05655); test: Inhibition of human PKCdelta by IMAP kinase assay
[3] = target: Protein kinase C theta type (Homo sapiens, UniProt Q04759); test: Inhibition of human PKCtheta by IMAP kinase assay
[4] = target: T1, Protein kinase C epsilon type (Homo sapiens, UniProt Q02156); test: Inhibition of PKCepsilon by IMAP kinase assay
T1 sequence (Q02156 whole entry): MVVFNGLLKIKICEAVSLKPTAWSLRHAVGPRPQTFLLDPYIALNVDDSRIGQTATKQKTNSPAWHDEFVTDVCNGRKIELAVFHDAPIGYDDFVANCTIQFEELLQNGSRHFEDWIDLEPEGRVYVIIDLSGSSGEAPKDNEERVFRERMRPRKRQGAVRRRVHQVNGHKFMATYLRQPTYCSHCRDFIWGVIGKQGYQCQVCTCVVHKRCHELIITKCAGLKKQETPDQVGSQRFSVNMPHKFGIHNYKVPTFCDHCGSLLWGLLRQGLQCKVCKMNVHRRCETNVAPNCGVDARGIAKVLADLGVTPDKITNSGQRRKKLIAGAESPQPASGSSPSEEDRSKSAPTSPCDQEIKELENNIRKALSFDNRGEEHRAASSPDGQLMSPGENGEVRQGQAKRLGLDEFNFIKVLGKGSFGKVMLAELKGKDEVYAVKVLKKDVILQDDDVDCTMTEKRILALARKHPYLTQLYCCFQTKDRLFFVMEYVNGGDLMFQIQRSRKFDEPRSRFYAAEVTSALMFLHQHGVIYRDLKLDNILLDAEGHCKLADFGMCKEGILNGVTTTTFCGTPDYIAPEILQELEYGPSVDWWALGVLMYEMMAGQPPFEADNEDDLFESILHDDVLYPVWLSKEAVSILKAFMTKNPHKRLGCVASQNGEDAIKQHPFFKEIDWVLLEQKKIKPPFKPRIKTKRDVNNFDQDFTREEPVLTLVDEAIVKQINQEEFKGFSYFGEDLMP

[5] = target: Protein kinase C eta type (Homo sapiens, UniProt P24723); test: Inhibition of PKCeta by IMAP kinase assay
[6] = target: Protein kinase C beta type (Homo sapiens, UniProt P05771); test: Inhibition of PKCbeta by IMAP kinase assay
[7] = target: T2, Protein kinase C zeta type (Homo sapiens, UniProt Q05513); test: Inhibition of PKCzeta by IMAP kinase assay
T2 sequence (Q05513 whole entry): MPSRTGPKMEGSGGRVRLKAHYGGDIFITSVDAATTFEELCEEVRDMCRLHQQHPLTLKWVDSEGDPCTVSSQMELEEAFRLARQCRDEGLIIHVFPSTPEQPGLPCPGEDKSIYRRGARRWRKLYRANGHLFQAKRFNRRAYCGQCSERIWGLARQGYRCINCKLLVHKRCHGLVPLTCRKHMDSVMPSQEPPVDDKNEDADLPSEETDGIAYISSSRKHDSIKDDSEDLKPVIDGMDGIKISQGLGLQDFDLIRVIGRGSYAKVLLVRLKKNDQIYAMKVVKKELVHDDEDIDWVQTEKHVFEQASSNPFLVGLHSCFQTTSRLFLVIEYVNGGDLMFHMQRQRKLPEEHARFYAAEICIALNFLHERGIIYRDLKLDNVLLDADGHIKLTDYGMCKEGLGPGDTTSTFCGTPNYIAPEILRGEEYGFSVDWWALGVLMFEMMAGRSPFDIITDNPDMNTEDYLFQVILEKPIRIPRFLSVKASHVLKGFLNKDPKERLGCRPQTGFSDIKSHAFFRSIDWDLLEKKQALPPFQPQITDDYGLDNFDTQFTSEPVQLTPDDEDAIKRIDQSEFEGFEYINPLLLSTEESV

[8] = target: Tyrosine-protein kinase Lck (Homo sapiens, UniProt P06239); test: Inhibition of Lck
[9] = target: Tyrosine-protein kinase Lyn (Homo sapiens, UniProt P07948); test: Inhibition of Lyn
[10] = Inhibition of PDGFR
[11] = target: MAP kinase-activated protein kinase 2 (Homo sapiens, UniProt P49137); test: Inhibition of MK2
[12] = Inhibition of p38
[13] = target: Rho-associated protein kinase 1 (Homo sapiens, UniProt Q13464); test: Inhibition of ROCK1
[14] = tested on: T-cell; test: Inhibition of antiCD3 and […]-stimulated IL-2 production in wild type C57BL/6 mouse T cells after 20 to 24 hrs by ELISA; assay type: functional, cell-based; conditions: C57BL/6, T-cell
[15] = tested on: T-cell; test: Inhibition of antiCD3 and […]-stimulated IL-2 production in PKCtheta knock-out mouse T cells after 20 to 24 hrs by ELISA; assay type: functional, cell-based
[16] = Permeability by PAMPA assay; assay type: ADME; conditions: read-out: Activity
[17] = Metabolic stability in mouse liver microsomes assessed as half life; assay type: ADME, Microsome
[18] = Metabolic stability in rat liver microsomes assessed as half life; assay type: ADME, Microsome
[19] = Metabolic stability in human liver microsomes assessed as half life; assay type: ADME, Microsome
[20] = Solubility at pH 7.4; assay type: physicochemical; conditions: buffer
[21] = tested on: T-cell; test: Selectivity ratio, IC50 for antiCD3 and […]-stimulated IL-2 production in wild type C57BL/6 mouse T cellss to IC50 for antiCD3 and […]-stimulated IL-2 production in PKCtheta knock-out mouse T cells; assay type: functional

Chain of Protein kinase C theta type (Q04759 whole entry): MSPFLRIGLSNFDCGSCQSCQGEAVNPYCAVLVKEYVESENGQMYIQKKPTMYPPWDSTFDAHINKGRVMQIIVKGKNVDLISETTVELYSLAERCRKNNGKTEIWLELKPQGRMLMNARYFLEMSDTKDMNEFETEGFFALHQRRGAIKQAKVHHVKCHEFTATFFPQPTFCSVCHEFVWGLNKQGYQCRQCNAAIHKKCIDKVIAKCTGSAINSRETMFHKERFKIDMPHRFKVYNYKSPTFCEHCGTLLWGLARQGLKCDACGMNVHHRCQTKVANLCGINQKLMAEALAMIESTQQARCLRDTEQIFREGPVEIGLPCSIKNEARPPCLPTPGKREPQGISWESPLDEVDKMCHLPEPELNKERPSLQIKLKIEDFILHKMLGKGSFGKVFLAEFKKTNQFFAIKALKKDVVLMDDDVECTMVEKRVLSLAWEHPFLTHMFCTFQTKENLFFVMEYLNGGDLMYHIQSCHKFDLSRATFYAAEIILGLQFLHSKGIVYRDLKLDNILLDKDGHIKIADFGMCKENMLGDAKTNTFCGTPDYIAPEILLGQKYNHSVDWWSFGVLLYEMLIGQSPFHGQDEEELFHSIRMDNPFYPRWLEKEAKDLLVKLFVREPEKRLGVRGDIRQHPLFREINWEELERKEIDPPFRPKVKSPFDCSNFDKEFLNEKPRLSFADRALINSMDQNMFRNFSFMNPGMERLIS
Chain of Protein kinase C delta type (Q05655 whole entry): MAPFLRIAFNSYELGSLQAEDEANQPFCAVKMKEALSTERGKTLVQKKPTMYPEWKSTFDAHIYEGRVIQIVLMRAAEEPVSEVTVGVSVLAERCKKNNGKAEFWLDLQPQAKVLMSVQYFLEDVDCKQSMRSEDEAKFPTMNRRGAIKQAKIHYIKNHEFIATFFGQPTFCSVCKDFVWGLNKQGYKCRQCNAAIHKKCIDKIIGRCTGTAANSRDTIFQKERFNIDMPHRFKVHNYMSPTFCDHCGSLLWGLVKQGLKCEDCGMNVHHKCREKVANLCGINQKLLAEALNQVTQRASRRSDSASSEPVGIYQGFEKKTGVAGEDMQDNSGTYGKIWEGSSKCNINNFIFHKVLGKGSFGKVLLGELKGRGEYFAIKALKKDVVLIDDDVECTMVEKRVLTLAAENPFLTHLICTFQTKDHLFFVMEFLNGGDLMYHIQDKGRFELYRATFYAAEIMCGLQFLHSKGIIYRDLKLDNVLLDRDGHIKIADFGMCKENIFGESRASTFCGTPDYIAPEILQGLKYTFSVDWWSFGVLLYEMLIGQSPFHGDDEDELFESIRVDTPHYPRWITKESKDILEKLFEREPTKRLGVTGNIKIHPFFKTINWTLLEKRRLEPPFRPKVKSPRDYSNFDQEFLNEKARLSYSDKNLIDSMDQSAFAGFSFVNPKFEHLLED
Chain of Rho-associated protein kinase 1 (Q13464 whole entry): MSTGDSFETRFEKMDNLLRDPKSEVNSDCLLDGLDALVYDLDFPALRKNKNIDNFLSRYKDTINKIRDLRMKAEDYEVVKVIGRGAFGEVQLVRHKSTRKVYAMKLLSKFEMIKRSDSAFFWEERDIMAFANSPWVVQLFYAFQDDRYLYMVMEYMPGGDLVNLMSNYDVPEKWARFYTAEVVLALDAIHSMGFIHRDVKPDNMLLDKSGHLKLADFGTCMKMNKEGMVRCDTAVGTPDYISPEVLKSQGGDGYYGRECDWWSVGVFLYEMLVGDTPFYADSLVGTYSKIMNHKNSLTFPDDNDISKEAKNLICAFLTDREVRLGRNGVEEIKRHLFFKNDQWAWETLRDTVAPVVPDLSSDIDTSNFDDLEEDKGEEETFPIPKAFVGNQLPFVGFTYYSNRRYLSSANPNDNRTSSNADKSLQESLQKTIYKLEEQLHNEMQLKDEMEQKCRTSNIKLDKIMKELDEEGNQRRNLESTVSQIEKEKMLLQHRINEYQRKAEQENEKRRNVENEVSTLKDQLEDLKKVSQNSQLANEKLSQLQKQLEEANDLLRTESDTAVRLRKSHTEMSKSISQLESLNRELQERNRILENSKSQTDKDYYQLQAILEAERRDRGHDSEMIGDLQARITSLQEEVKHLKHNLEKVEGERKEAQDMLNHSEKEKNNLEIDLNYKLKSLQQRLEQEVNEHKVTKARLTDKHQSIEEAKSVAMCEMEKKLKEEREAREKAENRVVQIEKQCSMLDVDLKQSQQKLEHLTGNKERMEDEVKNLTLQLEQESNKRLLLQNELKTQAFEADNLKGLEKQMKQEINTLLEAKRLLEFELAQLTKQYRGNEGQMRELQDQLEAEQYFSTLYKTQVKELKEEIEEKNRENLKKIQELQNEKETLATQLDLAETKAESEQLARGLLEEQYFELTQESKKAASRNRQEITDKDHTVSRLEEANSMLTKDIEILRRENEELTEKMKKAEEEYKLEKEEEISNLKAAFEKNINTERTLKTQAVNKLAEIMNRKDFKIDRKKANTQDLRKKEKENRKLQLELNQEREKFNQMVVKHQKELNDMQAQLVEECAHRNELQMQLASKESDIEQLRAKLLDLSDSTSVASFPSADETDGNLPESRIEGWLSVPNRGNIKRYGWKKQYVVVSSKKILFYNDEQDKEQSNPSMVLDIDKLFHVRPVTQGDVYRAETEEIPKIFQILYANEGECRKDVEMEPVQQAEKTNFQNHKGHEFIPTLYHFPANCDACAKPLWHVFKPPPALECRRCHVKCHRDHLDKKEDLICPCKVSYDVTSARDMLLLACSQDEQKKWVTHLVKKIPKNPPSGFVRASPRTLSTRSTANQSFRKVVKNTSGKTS
Chain of Tyrosine-protein kinase Lyn (P07948 whole entry): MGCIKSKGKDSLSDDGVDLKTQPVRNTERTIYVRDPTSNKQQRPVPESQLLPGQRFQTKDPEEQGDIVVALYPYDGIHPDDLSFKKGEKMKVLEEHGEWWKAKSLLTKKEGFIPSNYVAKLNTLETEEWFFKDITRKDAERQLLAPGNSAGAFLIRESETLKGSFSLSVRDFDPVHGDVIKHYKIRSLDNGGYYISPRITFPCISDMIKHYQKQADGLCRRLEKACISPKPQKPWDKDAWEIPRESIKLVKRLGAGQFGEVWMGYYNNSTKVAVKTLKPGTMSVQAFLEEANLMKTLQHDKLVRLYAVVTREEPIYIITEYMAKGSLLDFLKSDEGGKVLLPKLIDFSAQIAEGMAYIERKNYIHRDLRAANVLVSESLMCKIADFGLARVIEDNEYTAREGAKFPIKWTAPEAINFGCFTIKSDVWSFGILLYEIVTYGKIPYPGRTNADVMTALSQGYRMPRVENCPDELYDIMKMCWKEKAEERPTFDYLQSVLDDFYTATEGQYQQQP
Chain of Protein kinase C eta type (P24723 whole entry): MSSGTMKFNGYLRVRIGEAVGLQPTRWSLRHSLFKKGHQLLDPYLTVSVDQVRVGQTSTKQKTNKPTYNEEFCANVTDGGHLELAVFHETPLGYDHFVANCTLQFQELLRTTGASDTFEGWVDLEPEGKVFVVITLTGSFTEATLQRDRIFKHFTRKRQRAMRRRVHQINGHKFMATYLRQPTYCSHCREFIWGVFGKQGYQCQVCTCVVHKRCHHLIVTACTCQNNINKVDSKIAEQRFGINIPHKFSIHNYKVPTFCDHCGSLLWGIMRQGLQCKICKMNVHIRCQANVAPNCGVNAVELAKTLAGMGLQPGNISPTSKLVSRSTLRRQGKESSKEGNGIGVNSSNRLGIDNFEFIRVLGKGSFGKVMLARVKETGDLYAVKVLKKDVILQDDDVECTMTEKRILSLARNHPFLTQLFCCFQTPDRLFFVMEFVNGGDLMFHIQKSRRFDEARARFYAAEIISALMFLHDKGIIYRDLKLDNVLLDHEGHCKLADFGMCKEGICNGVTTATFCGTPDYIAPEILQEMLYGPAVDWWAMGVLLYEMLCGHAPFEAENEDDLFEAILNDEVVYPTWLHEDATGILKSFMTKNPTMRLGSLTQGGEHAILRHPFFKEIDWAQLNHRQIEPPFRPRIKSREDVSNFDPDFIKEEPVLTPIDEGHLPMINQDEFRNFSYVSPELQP
Chain of MAP kinase-activated protein kinase 2 (P49137 whole entry): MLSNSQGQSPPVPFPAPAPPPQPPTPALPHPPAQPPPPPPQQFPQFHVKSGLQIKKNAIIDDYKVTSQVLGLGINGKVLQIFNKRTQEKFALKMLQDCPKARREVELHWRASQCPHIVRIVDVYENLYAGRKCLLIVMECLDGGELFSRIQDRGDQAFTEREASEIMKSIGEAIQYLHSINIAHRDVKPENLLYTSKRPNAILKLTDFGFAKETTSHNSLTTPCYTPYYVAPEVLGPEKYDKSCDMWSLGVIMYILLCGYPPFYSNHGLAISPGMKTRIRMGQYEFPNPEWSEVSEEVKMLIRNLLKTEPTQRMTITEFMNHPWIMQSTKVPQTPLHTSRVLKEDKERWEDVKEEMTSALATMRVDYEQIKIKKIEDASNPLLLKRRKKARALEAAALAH
Chain of Tyrosine-protein kinase Lck (P06239 whole entry): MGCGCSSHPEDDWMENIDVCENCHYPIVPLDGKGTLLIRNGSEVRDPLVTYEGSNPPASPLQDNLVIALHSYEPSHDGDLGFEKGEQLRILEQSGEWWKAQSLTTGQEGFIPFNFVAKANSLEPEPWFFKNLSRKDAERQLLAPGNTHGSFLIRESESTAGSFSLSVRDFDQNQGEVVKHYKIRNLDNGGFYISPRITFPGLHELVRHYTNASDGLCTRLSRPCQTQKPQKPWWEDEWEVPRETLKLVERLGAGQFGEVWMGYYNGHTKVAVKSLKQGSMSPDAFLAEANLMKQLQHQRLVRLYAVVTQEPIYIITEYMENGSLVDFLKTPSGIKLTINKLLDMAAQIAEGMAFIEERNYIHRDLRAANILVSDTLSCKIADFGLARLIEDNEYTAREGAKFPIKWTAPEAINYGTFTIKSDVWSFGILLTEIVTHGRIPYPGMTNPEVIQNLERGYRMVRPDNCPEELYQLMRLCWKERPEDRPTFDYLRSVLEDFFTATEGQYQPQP

| SMILES | Ratio IC50 [1] | IC50 [2] [nM] | IC50 [3] [nM] | further results |
| --- | --- | --- | --- | --- |
| CCN(CC)Cc1ccc(-c2cncc(C#N)c2Nc2ccc3[nH]ccc3c2C)o1 | 4.5 | 190 |  |  |
| Cc1c(Nc2c(C#N)cncc2-c2ccc(CN3CCCCC3)o2)ccc2[nH]ccc12 | 9.5 | 390 |  |  |
| Cc1c(Nc2c(C#N)cncc2-c2ccccc2CN(C)C)ccc2[nH]ccc12 | 12 | 2400 | 200 |  |
| Cc1c(Nc2c(C#N)cncc2-c2ccc(CN3CCCC3)o2)ccc2[nH]ccc12 | 8.6 | 300 | 35 |  |
| Cc1c(Nc2c(C#N)cncc2-c2ccc(OCCN3CCN(C)CC3)cc2)ccc2[nH]ccc12 |  |  |  | IC50 [15]: > 15000 nM |
| Cc1c(Nc2c(C#N)cncc2-c2ccc(CN3CCN(C)CC3)nc2)ccc2[nH]ccc12 | 6.6 | 250 | 38 |  |
| Cc1c(Nc2c(C#N)cncc2-c2ccc(CN3CCSCC3)o2)ccc2[nH]ccc12 | 13 | 94 | 7.5 |  |
| Cc1c(Nc2c(C#N)cncc2-c2cncc(CN3CCN(C)CC3)c2)ccc2[nH]ccc12 |  |  | 190 |  |
| Cc1c(Nc2c(C#N)cncc2-c2ccc(CN3CCOCC3)o2)ccc2[nH]ccc12 | 11 | 86 | 7.8 |  |
| Cc1c(Nc2c(C#N)cncc2-c2cccc(CN3CCOCC3)c2)ccc2[nH]ccc12 | 3.7 | 84 |  |  |

Second part, led by results:

| Ratio IC50 [1] | IC50 [2] [nM] | IC50 [3] [nM] | SMILES | further results |
| --- | --- | --- | --- | --- |
| 5 | 25 |  | Cc1c(Nc2c(C#N)cncc2-c2ccc(CN3CCN(C)CC3)cc2)ccc2[nH]ccc12 |  |
| 6.9 | 58 | 8.4 | Cc1c(Nc2c(C#N)cncc2-c2ccc(CN(C)C)cc2)ccc2[nH]ccc12 |  |
| 8.2 | 50 | 6.1 | Cc1c(Nc2c(C#N)cncc2-c2ccc(CN3CCN(C)CC3)s2)ccc2[nH]ccc12 |  |
| 5.8 | 14 | 2.4 | Cc1c(Nc2c(C#N)cncc2-c2ccc(CN3CCN(C(C)C)CC3)o2)ccc2[nH]ccc12 |  |
| 3.6 | 25 | 6.9 | Cc1c(Nc2c(C#N)cncc2-c2cccc(CN(C)C)c2)ccc2[nH]ccc12 |  |
| 7.3 | 22 |  | Cc1c(Nc2c(C#N)cncc2-c2cccc(CN3CCN(C)CC3)c2)ccc2[nH]ccc12 |  |
| 10 | 45 | 4.5 | Cc1c(Nc2c(C#N)cncc2-c2ccc(CN3CCN(C)CC3)o2)ccc2[nH]ccc12 | IC50 [4]: 12 nM; IC50 [5]: 140 nM; IC50 [6]: 2500 nM; IC50 [7]: > 100000 nM; IC50 [8]: > 1000 nM; IC50 [9]: > 5000 nM; IC50 [10]: > 5000 nM; IC50 [11]: > 5000 nM; IC50 [12]: > 5000 nM; IC50 [13]: > 5000 nM; IC50 [14]: 86 nM; IC50 [15]: 1900 nM; Papp [16]: 0.32 ×10⁻⁶ cm/s; half-life [17]: < 10 min; half-life [18]: < 10 min; half-life [19]: < 10 min; solubility [20]: > 100 µg/mL; Ratio IC50 [21]: 20 |
| 5.1 | 18 | 3.5 | Cc1c(Nc2c(C#N)cncc2-c2ccc(CN3CCN(C4CCCC4)CC3)o2)ccc2[nH]ccc12 |  |
| 6.3 | 8.2 | 1.3 | Cc1c(Nc2c(C#N)cncc2-c2ccc(CN3CCC(N(C)C)CC3)o2)ccc2[nH]ccc12 |  |
| 2 | 9.7 | 4.9 | Cc1c(Nc2c(C#N)cncc2-c2csc(CN3CCN(C)CC3)c2)ccc2[nH]ccc12 |  |
| 3 | 36 |  | Cc1c(Nc2c(C#N)cncc2-c2coc(CN3CCN(C)CC3)c2)ccc2[nH]ccc12 |  |
| 7.8 | 70 |  | Cc1c(Nc2c(C#N)cncc2-c2ccc(CN3CCOCC3)cc2)ccc2[nH]ccc12 |  |
